This note sets out measurements from patent US4058659A, “6,8-Disubstituted purine derivatives of 9-β-D-ribofuranosyl 3',5'-cyclic phosphate” (ICN Pharmaceuticals, Inc., priority 1975, dated 1977).

For one assay, the system named is phosphodiesterase. Nature of the assay: Phosphodiesterase inhibition. The assay is classed as biochemical.
The next assay deals with protein kinase. As to the kind of experiment: Protein kinase activation relative to cyclic AMP. Type of assay: biochemical. As to conditions: compared with cyclic AMP.
The subject of a further assay is adenyl cyclase. Nature of the assay: Inhibition of adenyl cyclase function. Type of assay: biochemical.
For assay [1], the system named is isolated cat papillary muscle. Nature of the assay: Positive inotropic effect: % change in contractile force in isolated cat papillary muscle. The note with it: for activation at 1 µg/mL: 1.0 μg/ml; for activation at 3.1 µg/mL: 3.1 μg/ml; for activation at 10 µg/mL: 10.0 μg/ml; for activation at 31 µg/mL: 31.0 μg/ml; for activation at 100 µg/mL: 100 μg/ml; for activation at 310 µg/mL: 310 μg/ml; for positive inotropic effect: statement in words, isolated cat papillary muscle.

Setting [2] is: Felis catus, read-out: % change in Contractile Force (CF).

Structures can show the parent of a compound that is named as a salt.

`O=P1(O)OC[C@H]2O[C@@H](n3c(Br)nc4c(NCc5ccccc5)ncnc43)[C@H](O)[C@@H]2O1` [Compound 42, 6-(Benzylamino)-8-bromo-9-β-D-ribofuranosylpurine 3',5'-Cyclic Phosphate]: in the assay on phosphodiesterase, the inhibition of phosphodiesterase entry was “inhibit phosphodiesterase markedly”.

Turning to `CC(=O)O[C@@H]1[C@@H]2OP(=O)(O)OC[C@H]2O[C@H]1n1c(Cl)nc2c(Cl)ncnc21` [Compound 2a, 2'-O-Acetyl-6,8-dichloro-9-β-D-ribofuranosylpurine 3',5'-Cyclic Phosphate Sodium Salt], the protein kinase activation entry with protein kinase is recorded as “superior to cyclic AMP”. For the same compound, in the assay with adenyl cyclase, the “inhibition of adenyl cyclase function” value was “inhibit adenyl cyclase function”.

In the case of `CSc1nc2c(NCc3ccccc3)ncnc2n1[C@@H]1O[C@@H]2COP(=O)(O)O[C@H]2[C@H]1O` [Compound 43, 6-(Benzylamino)-8-(methylthio)-9-β-D-ribofuranosylpurine 3',5'-Cyclic Phosphate], the inhibition of phosphodiesterase result with phosphodiesterase is on record as “inhibit phosphodiesterase markedly”.

Turning to `CCCCNc1ncnc2c1nc(SCc1ccccc1)n2[C@@H]1O[C@@H]2COP(=O)(O)O[C@H]2[C@H]1O` [Compound 17, 8-(Benzylthio)-6-(n-butylamino)-9-β-D-ribofuranosylpurine 3',5'-CyclicPhosphate], in assay [1] (setting [2]), the activation at 1 µg/mL stood at 7.5%, the activation at 3.1 µg/mL was 10%, the activation at 10 µg/mL is 19.3% and the activation at 31 µg/mL worked out at 24%. In assay [1] (setting [2]), the activation at 100 µg/mL turned out to be 30% and the activation at 310 µg/mL was determined as 39%. Also, the positive inotropic effect result in assay [1] is “exhibit positive inotropic effect”. Besides, the inhibition of phosphodiesterase result in the assay with phosphodiesterase was “inhibit phosphodiesterase markedly”.

On to `CCCNc1ncnc2c1nc(SCc1ccccc1)n2[C@@H]1O[C@@H]2COP(=O)(O)O[C@H]2[C@H]1O` [Compound 20, 8-(Benzylthio)-6-n-propylamino-9-β-D-ribofuranosylpurine 3',5'-Cyclic Phosphate], for which the activation at 310 µg/mL in assay [1] (setting [2]) is 30%. In addition, the activation at 500 µg/mL in assay [1] (Felis catus, 500 μg/ml, read-out: % change in Contractile Force (CF)) came to 50%. The positive inotropic effect entry in assay [1] was “exhibit positive inotropic effect”.

For `CCN(CC)c1ncnc2c1nc(Sc1ccc(Cl)cc1)n2[C@@H]1O[C@@H]2COP(=O)(O)O[C@H]2[C@H]1O` [Compound 35, 8-(p-Chlorophenylthio)-6-(diethylamino)-9-β-D-ribofuranosylpurine 3',5'-Cyclic Phosphate], the inhibition of phosphodiesterase result in the assay on phosphodiesterase is given as “inhibit phosphodiesterase markedly”.

In the case of `Nc1nc2c(Cl)ncnc2n1[C@@H]1O[C@@H]2COP(=O)(O)O[C@H]2[C@H]1O` [Compound 4, 8-Amino-6-chloro-9-β-D-ribofuranosylpurine 3',5'-Cyclic Phosphate], the protein kinase activation entry in the assay with protein kinase is on record as “superior to cyclic AMP”. For the same compound, in the assay with phosphodiesterase, the inhibition of phosphodiesterase result was “inhibit phosphodiesterase markedly”.

Regarding `Nc1nc2c(S)ncnc2n1[C@@H]1O[C@@H]2COP(=O)(O)O[C@H]2[C@H]1O` [Compound 6, 8-Amino-9-β-D-ribofuranosyl-6-thiopurine 3',5'-Cyclic Phosphate], in the assay on phosphodiesterase, the inhibition of phosphodiesterase entry was “inhibit phosphodiesterase markedly”.

As to `O=P1(O)OC[C@H]2O[C@@H](n3c(Sc4ccc(Cl)cc4)nc4c(Nc5ccccc5)ncnc43)[C@H](O)[C@@H]2O1` [Compound 37, 6-Anilino-8-(p-chlorophenylthio)-9-β-D-ribofuranosylpurine 3',5'-Cylic Phosphate], in assay [1] (setting [2]), the activation at 1 µg/mL is 2%, the activation at 3.1 µg/mL amounted to 10.3%, the activation at 10 µg/mL was found to be 31.3% and the activation at 31 µg/mL worked out at 50.2%. Further, in assay [1] (setting [2]), the activation at 100 µg/mL was 74.5% and the activation at 310 µg/mL came to 82.3%. Further, the positive inotropic effect result in assay [1] was “exhibit positive inotropic effect”.

Consider `CCCCNc1ncnc2c1nc(SC)n2[C@@H]1O[C@@H]2COP(=O)(O)O[C@H]2[C@H]1O` [Compound 30, 6-n-Butylamino-8-(methylthio)-9-β-D-ribofuranosylpurine 3',5'-Cyclic Phosphate], for which the protein kinase activation result in the assay on protein kinase is given as “superior to cyclic AMP”.

Consider `CCN(CC)c1ncnc2c1nc(Cl)n2[C@@H]1O[C@@H]2COP(=O)(O)O[C@H]2[C@H]1O` [Compound 9, 8-Chloro-6-(diethylamino)-9-β-D-ribofuranosylpurine 3',5'-Cyclic Phosphate], for which the protein kinase activation result in the assay on protein kinase was “superior to cyclic AMP”. Besides, the inhibition of phosphodiesterase entry in the assay with phosphodiesterase is reported as “inhibit phosphodiesterase markedly”.

Regarding `O=P1(O)OC[C@H]2O[C@@H](n3c(Sc4ccc(Cl)cc4)nc4c(N5CCCCC5)ncnc43)[C@H](O)[C@@H]2O1` [Compound 34, 8-(p-Chlorophenylthio)-6-piperidino-9-β-D-ribofuranosylpurine 3',5'-Cyclic Phosphate], the inhibition of phosphodiesterase result in the assay on phosphodiesterase was “inhibit phosphodiesterase markedly”.

Take `CN(C)c1nc(N)nc2c1nc(Cl)n2[C@@H]1O[C@@H]2COP(=O)(O)O[C@H]2[C@H]1O` [Compound 56, 2-Amino-8-chloro-6-dimethylamino-9-β-D-ribofuranosylpurine 3',5'-Cyclic Phosphate]: the inhibition of phosphodiesterase entry with phosphodiesterase is reported as “inhibit phosphodiesterase markedly”.

As for `CCNc1ncnc2c1nc(SCc1ccccc1)n2[C@@H]1O[C@@H]2COP(=O)(O)O[C@H]2[C@H]1O` [Compound 19, 8-(Benzylthio)-6-(ethylamino)-9-β-D-ribofuranosylpurine 3',5'-Cyclic Phosphate], in assay [1] (setting [2]), the activation at 1 µg/mL stood at 9%, the activation at 3.1 µg/mL came to 11%, the activation at 10 µg/mL worked out at 17% and the activation at 31 µg/mL was 28%. In assay [1] (setting [2]), the activation at 100 µg/mL came to 45% and the activation at 310 µg/mL came out at 88%. Besides, the positive inotropic effect result in assay [1] was “exhibit positive inotropic effect”. For the same compound, the inhibition of phosphodiesterase result in the assay on phosphodiesterase was “inhibit phosphodiesterase markedly”.

On to `O=P1(O)OC[C@H]2O[C@@H](n3c(SCc4ccccc4)nc4c(NCc5ccccc5)ncnc43)[C@H](O)[C@@H]2O1` [Compound 44, 6-(Benzylamino)-8-(benzylthio)-9-β-D-ribofuranosylpurine 3',5'-Cyclic Phosphate], for which the inhibition of phosphodiesterase result with phosphodiesterase was “inhibit phosphodiesterase markedly”.

As to `CC(=O)O[C@@H]1[C@@H]2OP(=O)(O)OC[C@H]2O[C@H]1n1c(SCc2ccccc2)nc2c(Cl)ncnc21` [Compound 13, 2'-o-acetyl-8-(benzylthio)-6-chloro-9-β-D-ribofuranosylpurine 3',5'-Cyclic Phosphate Sodium Salt], in the assay with phosphodiesterase, the inhibition of phosphodiesterase result is “inhibit phosphodiesterase markedly”.

Consider `O=P1(O)OC[C@H]2O[C@@H](n3c(SCc4ccccc4)nc4c(N5CCCC5)ncnc43)[C@H](O)[C@@H]2O1` [Compound 18, 8-(Benzylthio)-6-pyrrolidino-9-β-D-ribofuranosylpurine 3',5'-Cyclic Phosphate], for which the inhibition of phosphodiesterase result in the assay with phosphodiesterase is “inhibit phosphodiesterase markedly”.

Take `CCN(CC)c1ncnc2c1nc(SCc1ccccc1)n2[C@@H]1O[C@@H]2COP(=O)(O)O[C@H]2[C@H]1O` [Compound 15, 8-(Benzylthio)-6-(diethylamino)-9-β-D-ribofuranosylpurine 3',5'-CyclicPhosphate]: the inhibition of phosphodiesterase entry in the assay with phosphodiesterase was “inhibit phosphodiesterase markedly”.

As for `CN(C)c1ncnc2c1nc(SCc1ccccc1)n2[C@@H]1O[C@@H]2COP(=O)(O)O[C@H]2[C@H]1O` [Compound 24, 8-(Benzylthio)-6-dimethylamino-9-β-D-ribofuranosylpurine 3',5'-Cyclic Phosphate], in assay [1] (setting [2]), the activation at 1 µg/mL was 4%, the activation at 3.1 µg/mL amounted to 9%, the activation at 10 µg/mL is 13% and the activation at 31 µg/mL worked out at 18%. For the same compound, in assay [1] (setting [2]), the activation at 100 µg/mL was 45% and the activation at 310 µg/mL was found to be 118%. The positive inotropic effect result in assay [1] is reported as “exhibit positive inotropic effect”.

Regarding `CCCCNc1ncnc2c1nc(Sc1ccc(Cl)cc1)n2[C@@H]1O[C@@H]2COP(=O)(O)O[C@H]2[C@H]1O` [Compound 36, 6-n-Butylamino-8-(p-chlorophenylthio)-9-β-D-ribofuranosylpurine 3',5'-Cyclic Phosphate], in assay [1] (setting [2]), the activation at 1 µg/mL came out at 9.8%, the activation at 3.1 µg/mL was determined as 15%, the activation at 10 µg/mL turned out to be 52.7% and the activation at 31 µg/mL was found to be 62.3%. For the same compound, in assay [1] (setting [2]), the activation at 100 µg/mL was 29.4% and the activation at 310 µg/mL came to 101%. For the same compound, the positive inotropic effect result in assay [1] is “exhibit positive inotropic effect”.

On to `CCCC(=O)O[C@@H]1[C@@H]2OP(=O)(O)OC[C@H]2O[C@H]1n1c(Cl)nc2c(Cl)ncnc21` [Compound 2b, 2'-O-Butyryl-6,8-dichloro-9-β-D-ribofuranosylpurine 3',5'-Cyclic Phosphate Sodium Salt], for which the protein kinase activation result with protein kinase is reported as “superior to cyclic AMP”. Further, in the assay on adenyl cyclase, the “inhibition of adenyl cyclase function” value is “inhibit adenyl cyclase function”.

On to `O=P1(O)OC[C@H]2O[C@@H](n3c(SCc4ccccc4)nc4c(SCc5ccccc5)ncnc43)[C@H](O)[C@@H]2O1` [Compound 14, 6,8-Bis-(benzylthio)-9-D-ribofuranosylpurine 3',5'-Cyclic Phosphate Sodium Salt], for which the inhibition of phosphodiesterase entry in the assay with phosphodiesterase was “inhibit phosphodiesterase markedly”.

Take `CCN(CC)c1nc2c(Cl)ncnc2n1[C@@H]1O[C@@H]2COP(=O)(O)O[C@H]2[C@H]1O` [Compound 10, 6-Chloro-8-(diethylamino)-9-β-D-ribofuranosylpurine 3',5'-Cyclic Phosphate]: the inhibition of phosphodiesterase result with phosphodiesterase was “inhibit phosphodiesterase markedly”.
